The source made the active and inactive calls. No cut-off for these calls is given here.
Columns and labels:
NCI-H1299 = test: Cytotoxicity against human NCI-H1299 cells assessed as inhibition of cell viability incubated for 48 hrs by CCK8 assay; assay type: functional, cell-based; settings: NCI-H1299, 48 h
A549 [1] = test: Cytotoxicity against human A549 cells assessed as inhibition of cell viability incubated for 48 hrs by CCK8 assay; assay type: functional, cell-based; settings: A549, 48 h
A549 [2] = test: Induction of apoptosis in human A549 cells assessed as increase in BAX level at 2.5 to 10 uM incubated for 48 hrs by Western blot analysis; assay type: functional, cell-based; settings: dose 2.5-10 µM
A549 [3] = test: Induction of apoptosis in human A549 cells assessed as early apoptotic cells at 5 uM incubated for 48 hrs by Annexin V-FITC/PI staining based flow cytometry (reference value: 5.02 %); assay type: functional
[4] = Cytotoxicity against human BEAS-2B cells assessed as cell viability upto 20 uM incubated for 48 hrs by CCK8 assay relative to control; assay type: toxicity, cell-based; settings: read-out: Activity
[5] = biological target: Myc proto-oncogene protein (Homo sapiens) (UniProt P01106); test: Inhibition of c-Myc in human NCI-H1299 cells by Western blot analysis; assay type: cell-based; settings: dose <= 10.0 µM
Myc proto-oncogene protein (Homo sapiens), sequence (P01106 whole entry): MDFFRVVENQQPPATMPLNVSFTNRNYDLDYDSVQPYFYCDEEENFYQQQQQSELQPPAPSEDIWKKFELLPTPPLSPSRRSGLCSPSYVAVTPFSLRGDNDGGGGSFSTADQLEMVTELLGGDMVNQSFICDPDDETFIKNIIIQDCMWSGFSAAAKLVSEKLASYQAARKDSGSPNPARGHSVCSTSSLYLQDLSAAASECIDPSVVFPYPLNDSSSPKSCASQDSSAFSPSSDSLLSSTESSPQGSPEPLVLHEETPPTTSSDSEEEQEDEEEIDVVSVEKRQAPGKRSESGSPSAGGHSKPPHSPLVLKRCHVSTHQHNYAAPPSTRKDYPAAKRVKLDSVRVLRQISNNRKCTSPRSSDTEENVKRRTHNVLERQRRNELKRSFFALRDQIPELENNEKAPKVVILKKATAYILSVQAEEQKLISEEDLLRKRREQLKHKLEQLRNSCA

A549 [6] = test: Induction of apoptosis in human A549 cells assessed as activation of caspase-9 cleavage at 2.5 to 10 uM incubated for 48 hrs by Western blot analysis; assay type: functional, cell-based; settings: dose 2.5-10 µM
A549 [7] = test: Effect on c-Myc mRNA expression in human A549 cells at 10 uM by Q-PCR analysis; assay type: functional, cell-based
A549 [8] = test: Induction of apoptosis in human A549 cells at 15 uM incubated for 48 hrs by Annexin V-FITC/PI staining based flow cytometry relative to control; assay type: functional
[9] = biological target: Myc proto-oncogene protein (Homo sapiens) (UniProt P01106); test: Inhibition of c-Myc in human A549 cells by Western blot analysis; assay type: cell-based; settings: dose <= 10.0 µM
A549 [10] = test: Induction of apoptosis in human A549 cells assessed as activation of caspase-3 cleavage at 2.5 to 10 uM incubated for 48 hrs by Western blot analysis; assay type: functional, cell-based; settings: dose 2.5-10 µM
A549 [11] = test: Induction of apoptosis in human A549 cells assessed as early apoptotic cells at 2.5 uM incubated for 48 hrs by Annexin V-FITC/PI staining based flow cytometry (reference value: 5.02 %); assay type: functional
A549 [12] = test: Induction of apoptosis in human A549 cells assessed as viable cells at 5 uM incubated for 48 hrs by Annexin V-FITC/PI staining based flow cytometry (reference value: 87.8 %); assay type: functional; settings: read-out: Activity
A549 [13] = test: Induction of apoptosis in human A549 cells assessed as late apoptotic cells at 2.5 uM incubated for 48 hrs by Annexin V-FITC/PI staining based flow cytometry (reference value: 5.79 %); assay type: functional
A549 [14] = test: Induction of apoptosis in human A549 cells assessed as increase in BAD level at 2.5 to 10 uM incubated for 48 hrs by Western blot analysis; assay type: functional, cell-based; settings: dose 2.5-10 µM
A549 [15] = test: Induction of apoptosis in human A549 cells assessed as viable cells at 10 uM incubated for 48 hrs by Annexin V-FITC/PI staining based flow cytometry (reference value: 87.8 %); assay type: functional; settings: read-out: Activity
A549 [16] = test: Induction of apoptosis in human A549 cells assessed as necrotic cells at 2.5 uM incubated for 48 hrs by Annexin V-FITC/PI staining based flow cytometry (reference value: 1.41 %); assay type: functional
A549 [17] = test: Induction of apoptosis in human A549 cells at 5 uM incubated for 48 hrs by Annexin V-FITC/PI staining based flow cytometry relative to control; assay type: functional
A549 [18] = test: Induction of apoptosis in human A549 cells assessed as necrotic cells at 10 uM incubated for 48 hrs by Annexin V-FITC/PI staining based flow cytometry (reference value: 1.41 %); assay type: functional
[19] = biological target: Myc proto-oncogene protein (Homo sapiens) (UniProt P01106); test: Inhibition of c-Myc in human A549 cells assessed as decrease in half life at 10 uM pretreated for 12 hrs followed by CHX treatment for 1 to 2 hrs by Western blot analysis; assay type: cell-based; settings: time 13-14 hrs
A549 [20] = test: Induction of apoptosis in human A549 cells incubated for 48 hrs by Annexin V-FITC/PI staining based flow cytometry; assay type: functional, cell-based; settings: dose 5-15 µM
A549 [21] = test: Induction of apoptosis in human A549 cells assessed as late apoptotic cells at 10 uM incubated for 48 hrs by Annexin V-FITC/PI staining based flow cytometry (reference value: 5.79 %); assay type: functional
A549 [22] = test: Induction of apoptosis in human A549 cells assessed as decrease in Bcl-2 level at 2.5 to 10 uM incubated for 48 hrs by Western blot analysis; assay type: functional, cell-based; settings: dose 2.5-10 µM
A549 [23] = test: Induction of apoptosis in human A549 cells assessed as late apoptotic cells at 5 uM incubated for 48 hrs by Annexin V-FITC/PI staining based flow cytometry (reference value: 5.79 %); assay type: functional
[24] = biological target: Myc proto-oncogene protein (Homo sapiens) (UniProt P01106); test: Inhibition of c-Myc in human A549 cells at 10 uM incubated for 24 hrs in presence of MG132 by Western blot analysis; assay type: cell-based
A549 [25] = test: Induction of apoptosis in human A549 cells assessed as necrotic cells at 5 uM incubated for 48 hrs by Annexin V-FITC/PI staining based flow cytometry (reference value: 1.41 %); assay type: functional
A549 [26] = test: Induction of apoptosis in human A549 cells assessed as viable cells at 2.5 uM incubated for 48 hrs by Annexin V-FITC/PI staining based flow cytometry (reference value: 87.8 %); assay type: functional; settings: read-out: Activity
A549 [27] = test: Induction of apoptosis in human A549 cells assessed as early apoptotic cells at 10 uM incubated for 48 hrs by Annexin V-FITC/PI staining based flow cytometry (reference value: 5.02 %); assay type: functional

Structure (SMILES): CCN(CC)CCCn1c(-c2cc(-c3ccc(N4CCCCCC4)cc3)on2)nc2ccccc21
- IC50 (NCI-H1299): 14.3 µM
- IC50 (A549 [1]): 12.2 µM

Structure (SMILES): Fc1ccc(-c2cc(-c3nc4ccccc4n3Cc3ccccc3)no2)cc1
- IC50 (NCI-H1299): > 40 µM
- IC50 (A549 [1]): > 40 µM

Structure (SMILES): CCc1ccc(C(=O)n2c(-c3cc(-c4ccc(N5CCOCC5)cc4)on3)nc3ccccc32)cc1
- IC50 (NCI-H1299): 27.6 µM
- IC50 (A549 [1]): 23.6 µM

Structure (SMILES): c1ccc2c(c1)nc(-c1cc(-c3ccc(N4CCCC4)cc3)on1)n2CCN1CCCCCC1
- IC50 (NCI-H1299): 36.3 µM
- IC50 (A549 [1]): 21.2 µM

Structure (SMILES): c1ccc2c(c1)nc(-c1cc(-c3ccc(N4CCCCC4)cc3)on1)n2CCN1CCOCC1
- IC50 (NCI-H1299): 23.8 µM
- IC50 (A549 [1]): 11.2 µM

Structure (SMILES): CN(C)CCCn1c(-c2cc(-c3ccc(N4CCOCC4)cc3)on2)nc2ccccc21
- IC50 (NCI-H1299): 22.3 µM
- IC50 (A549 [1]): 10.1 µM

Structure (SMILES): c1ccc2c(c1)nc(-c1cc(-c3ccc(N4CCCC4)cc3)on1)n2CCN1CCOCC1
- IC50 (NCI-H1299): 36 µM
- IC50 (A549 [1]): 19.9 µM

Structure (SMILES): Cc1cc(C)cc(OCCn2c(C3CC(=O)N(c4cccc(C)c4)C3)nc3ccccc32)c1 (stereo not given)
- IC50 (NCI-H1299): 18.8 µM
- IC50 (A549 [1]): 15.3 µM

Structure (SMILES): c1ccc2c(c1)nc(-c1cc(-c3ccc(N4CCCC4)cc3)on1)n2CCCN1CCOCC1
- IC50 (NCI-H1299): 36.2 µM
- IC50 (A549 [1]): 29.5 µM

Structure (SMILES): CN(C)c1ccc(-c2cc(-c3nc4ccccc4n3CCN3CCCCCC3)no2)cc1
- IC50 (NCI-H1299): 18.2 µM
- IC50 (A549 [1]): 11.4 µM

Structure (SMILES): CN(C)CCCn1c(-c2cc(-c3ccc(N4CCCCCC4)cc3)on2)nc2ccccc21
- IC50 (NCI-H1299): 12.9 µM
- IC50 (A549 [1]): 8.19 µM

Structure (SMILES): c1ccc2c(c1)nc(-c1cc(-c3ccc(N4CCCCC4)cc3)on1)n2CCCN1CCOCC1
- IC50 (NCI-H1299): 24.2 µM
- IC50 (A549 [1]): 13.8 µM

Structure (SMILES): CN(C)CCCn1c(-c2cc(-c3ccc(N(C)C)cc3)on2)nc2ccccc21
- IC50 (NCI-H1299): 17.9 µM
- IC50 (A549 [1]): 20.6 µM

Structure (SMILES): c1ccc2c(c1)nc(-c1cc(-c3ccc(N4CCCC4)cc3)on1)n2CCN1CCCC1
- IC50 (NCI-H1299): 38 µM
- IC50 (A549 [1]): 20.8 µM

Structure (SMILES): c1ccc2c(c1)nc(-c1cc(-c3ccc(N4CCCCCC4)cc3)on1)n2CCN1CCOCC1
- IC50 (NCI-H1299): 21 µM
- IC50 (A549 [1]): 10.9 µM

Structure (SMILES): c1ccc2c(c1)nc(-c1cc(-c3ccc(N4CCCCC4)cc3)on1)n2CCCN1CCCCC1
- IC50 (NCI-H1299): 29.1 µM
- IC50 (A549 [1]): 13.6 µM

Structure (SMILES): CN(C)c1ccc(-c2cc(-c3nc4ccccc4n3CCN3CCCCC3)no2)cc1
- IC50 (NCI-H1299): 13.1 µM
- IC50 (A549 [1]): 9.22 µM

Structure (SMILES): O=C(c1ccccc1)n1c(-c2cc(-c3ccc(N4CCOCC4)cc3)on2)nc2ccccc21
- IC50 (NCI-H1299): 19.5 µM
- IC50 (A549 [1]): 20.9 µM

Structure (SMILES): Cc1cc(C)cc(C(=O)n2c(-c3cc(-c4ccc(N5CCOCC5)cc4)on3)nc3ccccc32)c1
- IC50 (NCI-H1299): > 40 µM
- IC50 (A549 [1]): 19.2 µM

Structure (SMILES): c1ccc2c(c1)nc(-c1cc(-c3ccc(N4CCOCC4)cc3)on1)n2CCN1CCCC1
- Activity (A549 [2]): Active
- Activity (A549 [3]): 11.7%
- viability at 48 h, 20 µM [4]: > 90%
- inhibition [5]: Dose-dependent-effect
- Activity (A549 [6]): Active
- Activity (A549 [7]): inactive
- Activity (A549 [8]): 53%
- inhibition [9]: Dose-dependent-effect
- Activity (A549 [10]): Active
- Activity (A549 [11]): 4.67%
- viability at 5 µM (A549 [12]): 66.3%
- Activity (A549 [13]): 17.7%
- Activity (A549 [14]): Active
- viability at 10 µM (A549 [15]): 43.2%
- Activity (A549 [16]): 5.52%
- Activity (A549 [17]): 22.3%
- Activity (A549 [18]): 3.66%
- inhibition [19]: Active
- Activity (A549 [20]): Dose-dependent-effect
- Activity (A549 [21]): 45.2%
- Activity (A549 [22]): Active
- IC50 (NCI-H1299): 11.4 µM
- Activity (A549 [23]): 19.5%
- inhibition [24]: inactive
- Activity (A549 [25]): 2.44%
- IC50 (A549 [1]): 6.32 µM
- viability at 2.5 µM (A549 [26]): 72.1%
- Activity (A549 [27]): 7.88%

Structure (SMILES): c1ccc2c(c1)nc(-c1cc(-c3ccc(N4CCOCC4)cc3)on1)n2CCCN1CCOCC1
- IC50 (NCI-H1299): 23.2 µM
- IC50 (A549 [1]): 13.6 µM

Structure (SMILES): CCN(CC)CCCn1c(-c2cc(-c3ccc(N(C)C)cc3)on2)nc2ccccc21
- IC50 (NCI-H1299): 19.7 µM
- IC50 (A549 [1]): 8.78 µM
